This is an account of results in patent US9187497B2, “Substituted pyrido[3,2-e]pyrrolo[1,2-a]pyrazines as inhibitors of poly(ADP-ribose)polymerase (PARP)” (Takeda Phamaceutical Company Limited, priority 2009, dated 2015).

In one test the target is T1, PARP (Homo sapiens, UniProt P09874).
T1 construct: purchased Trevigen 4684-096-01 (enzyme); kit 4684-096-K HT
T1 sequence (P09874 whole entry): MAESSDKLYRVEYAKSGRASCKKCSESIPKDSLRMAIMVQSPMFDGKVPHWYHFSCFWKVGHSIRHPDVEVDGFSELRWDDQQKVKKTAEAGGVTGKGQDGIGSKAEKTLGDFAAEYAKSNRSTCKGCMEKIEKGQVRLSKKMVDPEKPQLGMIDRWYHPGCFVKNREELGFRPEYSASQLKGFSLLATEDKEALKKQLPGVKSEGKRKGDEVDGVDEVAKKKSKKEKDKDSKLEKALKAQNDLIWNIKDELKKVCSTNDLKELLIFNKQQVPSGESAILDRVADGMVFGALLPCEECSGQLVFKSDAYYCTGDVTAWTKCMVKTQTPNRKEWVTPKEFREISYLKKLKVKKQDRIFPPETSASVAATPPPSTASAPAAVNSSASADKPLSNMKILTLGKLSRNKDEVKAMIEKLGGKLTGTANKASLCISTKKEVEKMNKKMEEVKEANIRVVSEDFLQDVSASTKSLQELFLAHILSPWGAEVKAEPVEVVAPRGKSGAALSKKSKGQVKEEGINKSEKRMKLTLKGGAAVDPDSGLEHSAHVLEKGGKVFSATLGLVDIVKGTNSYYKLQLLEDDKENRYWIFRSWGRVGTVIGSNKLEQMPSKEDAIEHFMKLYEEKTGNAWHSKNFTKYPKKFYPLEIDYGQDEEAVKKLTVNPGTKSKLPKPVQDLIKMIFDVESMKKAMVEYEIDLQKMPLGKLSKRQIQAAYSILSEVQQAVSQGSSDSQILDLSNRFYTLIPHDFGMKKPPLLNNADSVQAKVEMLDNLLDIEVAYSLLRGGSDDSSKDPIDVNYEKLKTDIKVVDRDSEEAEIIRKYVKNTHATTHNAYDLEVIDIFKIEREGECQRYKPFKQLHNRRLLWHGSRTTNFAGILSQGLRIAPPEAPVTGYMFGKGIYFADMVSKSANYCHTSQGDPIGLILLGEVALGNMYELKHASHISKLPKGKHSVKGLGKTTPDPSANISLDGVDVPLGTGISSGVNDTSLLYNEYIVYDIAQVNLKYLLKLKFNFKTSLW
As to the kind of experiment: PARP ELISA colorimetric assay of inhibition of PARP catalytic activity (IC50). It is filed as biochemical. As to conditions: pIC50=-log(IC50), IC50 in molar concentration; ELISA-based PARP kit, 10 minutes of catalysis. As to the method: Inhibition Constant (IC50) from PARP ELISA
Inhibition of PARP catalytic activity was determined by use of an ELISA-based colorimetric PARP/Apoptosis Assay kit (part number 4684-096-K HT, Trevigen). To each histone coated well in the 96-well plate supplied by the manufacturer (part number 4677-096-P) is added 39 μl of PARP buffer (part number 4671-096-02) and 1 μl of test compound dissolved in DMSO (diluted serially 3-fold 11 times). After mixing, 5 μl of 0.1 nM PARP (part number 4684-096-01) is added and the solution allowed to stand at ambient temperature for 10 minutes. PARP catalysis is initiated with the addition of 5 μl of 100 μM β-nicotinamide adenine dinucleotide (NAD+) (part number 4684-096-02) with activated DNA (part number 4671-096-06). After 10 minutes of catalysis the reaction is quenched by solvent aspiration followed by irrigation of the assay wells 4 times with phosphate buffered saline (PBS) containing 0.1% t-Octylphenoxypolyethoxyethanol (Triton® X-100). Mouse Anti-poly ADP ribose (PAR) monoclonal antibody, goat antimouse immunoglobulin G (IgG)-horse radish peroxidase (HRP) conjugate and HRP substrate are added according to the manufacture's specifications to generate a colorimetric signal proportional to PARP catalytic activity. An IC50 for the test compound is calculated from the equation Absorbance=(Amax−background)/(1+([cmpd]/IC50)^n)+background fit to the 12 point test compound concentration gradient via nonlinear least squares.
For orientation: ELISA stands for enzyme-linked immunosorbent assay.
For orientation: IC50 means the concentration at which inhibition is half-maximal. Turning to `CC(C)N1CC(=O)Nc2cc(CN3CCC(c4ccc(Cl)cc4)CC3)cnc21` [Compound 96, 7-((4-(4-chlorophenyl)piperidin-1-yl)methyl)-4-isopropyl-3,4-dihydropyrido[2,3-b]pyrazin-2(1H)-one], the IC50 is not below 0.0501 µM. On the same count and under the same terms, to `CCOC(=O)c1ccc(N2CCN(Cc3cnc4c(c3)NC(=O)[C@@H]3CCCN43)CC2)nc1` [Compound 121, (S)-ethyl 6-(4-((6-oxo-5,6,6a,7,8,9-hexahydropyrido[3,2-e]pyrrolo[1,2-a]pyrazin-3-yl)methyl)piperazin-1-yl)nicotinate] belongs 0.0158 to 0.0398 µM. As for `COc1cc(-c2ccc(N3CCN(Cc4cnc5c(c4)NC(=O)[C@@H]4CCCCN54)CC3)cc2)ccn1` [Compound 144, (S)-3-((4-(4-(2-methoxypyridin-4-yl)phenyl)piperazin-1-yl)methyl)-7,8,9,10-tetrahydro-5H-dipyrido[1,2-a:3′,2′-e]pyrazin-6(6aH)-one], the IC50 is not below 0.0501 µM. Still for that read-out and setting: with `Nc1cccc(-c2ccc(N3CCN(Cc4cnc5c(c4)NC(=O)[C@@H]4CCCCN54)CC3)cc2)n1` [Compound 145, (S)-3-((4-(4-(6-aminopyridin-2-yl)phenyl)piperazin-1-yl)methyl)-7,8,9,10-tetrahydro-5H-dipyrido[1,2-a:3′,2′-e]pyrazin-6(6aH)-one] the figure was not below 0.0501 µM; with `O=C1Nc2cc(CN3CCN(c4ccc(-c5ccsc5)cc4)CC3)cnc2N2CCCC[C@@H]12` [Compound 146, (S)-3-((4-(4-(thiophen-3-yl)phenyl)piperazin-1-yl)methyl)-7,8,9,10-tetrahydro-5H-dipyrido[1,2-a:3′,2′-e]pyrazin-6(6aH)-one], 0.0158 to 0.0398 µM. As to `O=C1Nc2cc(CN3CCN(c4ccc(-c5cccs5)cc4)CC3)cnc2N2CCCC[C@@H]12` [Compound 147, (S)-3-((4-(4-(thiophen-2-yl)phenyl)piperazin-1-yl)methyl)-7,8,9,10-tetrahydro-5H-dipyrido[1,2-a:3′,2′-e]pyrazin-6(6aH)-one], the IC50 is not below 0.0501 µM.

Consider `O=C1Nc2cc(CN3CCN(c4ccc(-c5ccncc5)cc4)CC3)cnc2N2CCCC[C@@H]12` [Compound 148, (S)-3-((4-(4-(pyridin-4-yl)phenyl)piperazin-1-yl)methyl)-7,8,9,10-tetrahydro-5H-dipyrido[1,2-a:3′,2′-e]pyrazin-6(6aH)-one], for which the IC50 was 0.0158 to 0.0398 µM. `O=C1Nc2cc(CN3CCN(c4ccc(-c5ccccc5)cc4)CC3)cnc2N2CCCC[C@@H]12` [Compound 149, (S)-3-((4-(biphenyl-4-yl)piperazin-1-yl)methyl)-7,8,9,10-tetrahydro-5H-dipyrido[1,2-a:3′,2′-e]pyrazin-6(6aH)-one] gave an IC50 not below 0.0501 µM.

Compound `COc1ccc(-c2ccc(N3CCN(Cc4cnc5c(c4)NC(=O)[C@@H]4CCCCN54)CC3)cc2)cn1` [Compound 150, (S)-3-((4-(4-(6-methoxypyridin-3-yl)phenyl)piperazin-1-yl)methyl)-7,8,9,10-tetrahydro-5H-dipyrido[1,2-a:3′,2′-e]pyrazin-6(6aH)-one] had an IC50 not below 0.0501 µM. Same read-out and setting: to `O=C1Nc2cc(CN3CCN(c4ccc(-c5cncnc5)cc4)CC3)cnc2N2CCCC[C@@H]12` [Compound 151, (S)-3-((4-(4-(pyrimidin-5-yl)phenyl)piperazin-1-yl)methyl)-7,8,9,10-tetrahydro-5H-dipyrido[1,2-a:3′,2′-e]pyrazin-6(6aH)-one] belongs not below 0.0501 µM; to `COc1ncc(-c2ccc(N3CCN(Cc4cnc5c(c4)NC(=O)[C@@H]4CCCCN54)CC3)cc2)cn1` [Compound 152, (S)-3-((4-(4-(2-methoxypyrimidin-5-yl)phenyl)piperazin-1-yl)methyl)-7,8,9,10-tetrahydro-5H-dipyrido[1,2-a:3′,2′-e]pyrazin-6(6aH)-one], 0.0158 to 0.0398 µM. Still for that read-out and setting: with `COc1cnccc1-c1ccc(N2CCN(Cc3cnc4c(c3)NC(=O)[C@@H]3CCCCN43)CC2)cc1` [Compound 153, (S)-3-((4-(4-(3-methoxypyridin-4-yl)phenyl)piperazin-1-yl)methyl)-7,8,9,10-tetrahydro-5H-dipyrido[1,2-a:3′,2′-e]pyrazin-6(6aH)-one] the figure was not below 0.0501 µM. For `Cc1ccccc1-c1ccc(N2CCN(Cc3cnc4c(c3)NC(=O)[C@@H]3CCCCN43)CC2)cc1` [Compound 154, (S)-3-((4-(2′-methylbiphenyl-4-yl)piperazin-1-yl)methyl)-7,8,9,10-tetrahydro-5H-dipyrido[1,2-a:3′,2′-e]pyrazin-6(6aH)-one], the IC50 is not below 0.0501 µM. On the same count and under the same terms, with `Cc1cnccc1-c1ccc(N2CCN(Cc3cnc4c(c3)NC(=O)[C@@H]3CCCCN43)CC2)cc1` [Compound 155, (S)-3-((4-(4-(3-methylpyridin-4-yl)phenyl)piperazin-1-yl)methyl)-7,8,9,10-tetrahydro-5H-dipyrido[1,2-a:3′,2′-e]pyrazin-6(6aH)-one] the figure was not below 0.0501 µM; with `COc1cccc(-c2ccc(N3CCN(Cc4cnc5c(c4)NC(=O)[C@@H]4CCCCN54)CC3)cc2)n1` [Compound 156, (S)-3-((4-(4-(6-methoxypyridin-2-yl)phenyl)piperazin-1-yl)methyl)-7,8,9,10-tetrahydro-5H-dipyrido[1,2-a:3′,2′-e]pyrazin-6(6aH)-one], not below 0.0501 µM.

In another test the test system is Jurkat cell line. The test can be described thus: PARP cellular chemopotentiation assay (MTS cell viability with and without TMZ). In kind it is cell-based. As to conditions: ratio of EC50 for inhibition of cell viability without and with 100 μM TMZ; Jurkat cells, 96 hours of treatment. On the procedure:
Potentiation Factor (PF50) Determination from PARP Cellular Chemopotentiation Assay
Jurkat cell line was maintained according to the supplier (American Type Culture Collection (Rockville, Md.)). Cells were seeded in 96-well tissue culture microplates at 10,000 cells per well and cultured for 24 hours prior to addition of compounds, TMZ (Temozolomide) or DMSO (dimethylsulfoxide) vehicle. After 96 hours of treatment, the conversion of MTS ([3-(4,5-dimethylthiazol-2-yl)-5-(3-carboxymethoxyphenyl)-2-(4-sulfophenyl)-2H-tetrazolium, inner salt], Promega, Madison, Wis.) by metabolically active cells was determined through measuring the OD490 nm with a Spectramax microplate reader (Molecular Devices, San Diego, Calif.). To generate concentration-response curves, cells were treated in duplicate with a range of serial compound dilutions (final DMSO concentration was 0.5%) in the absence or presence of 100 μM TMZ chemoreagent. The percentage of viable cells per well was calculated by correction for background and normalizing against DMSO-treated cells. EC50 values for inhibition of cell viability were calculated using XLfit4 MicroSoft Excel curve-fitting software. Chemopotentiation factor PF50 was calculated as the ratio of EC50 values of cells co-treated without and with TMZ, respectively.
As to `N#Cc1ccc(N2CCN(Cc3cnc4c(c3)NC(=O)[C@@H]3CSCCN43)CC2)nc1` [Compound 89, (R)-6-(4-((6-oxo-5,6,6a,7,9,10-hexahydropyrido[3,2-e][1,4]thiazino[4,3-a]pyrazin-3-yl)methyl)piperazin-1-yl)nicotinonitrile], the PF50 is reported as more than 10.

Take `O=C1Nc2cc(CN3CC=C(c4ccc(Cl)cc4)CC3)cnc2N2CCSC[C@@H]12` [Compound 91, (R)-3-((4-(4-chlorophenyl)-5,6-dihydropyridin-1(2H)-yl)methyl)-6a,7,9,10-tetrahydropyrido[3,2-e][1,4]thiazino[4,3-a]pyrazin-6(5H)-one]: the PF50 is more than 2000. Still for that read-out and setting: with `O=C1Nc2cc(CN3CCN(c4ccc(Cl)cc4)CC3)cnc2N2CCOCC12` (stereo not shown) [Compound 93, 3-((4-(4-chlorophenyl)piperazin-1-yl)methyl)-6a,7,9,10-tetrahydro-[1,4]oxazino[4,3-a]pyrido[3,2-e]pyrazin-6(5H)-one] the entry was “≧0”. `CN1CCN2c3ncc(CN4CCN(c5ccc(Cl)cc5)CC4)cc3NC(=O)C2C1` (stereo not shown) [Compound 97, 7-[4-(4-Chloro-phenyl)-piperazin-1-ylmethyl]-2-methyl-1,3,4,10a-tetrahydro-2H,9H-2,4a,5,9-tetraaza-phenanthren-10-one]: the PF50 entry is given as “≧0”. Same read-out and setting: with `CNC(=O)c1ccc(N2CCN(Cc3cnc4c(c3)NC(=O)[C@@H]3CSCCN43)CC2)cc1` [Compound 98, (R)—N-methyl-4-(4-((6-oxo-5,6,6a,7,9,10-hexahydropyrido[3,2-e][1,4]thiazino[4,3-a]pyrazin-3-yl)methyl)piperazin-1-yl)benzamide] the figure was more than 5000. `O=C(NC1CC1)c1ccc(N2CCN(Cc3cnc4c(c3)NC(=O)[C@@H]3CSCCN43)CC2)cc1` [Compound 99, (R)—N-cyclopropyl-4-(4-((6-oxo-5,6,6a,7,9,10-hexahydropyrido[3,2-e][1,4]thiazino[4,3-a]pyrazin-3-yl)methyl)piperazin-1-yl)benzamide]: the PF50 is more than 5000.

`N#Cc1ccc(N2CCN(Cc3cnc4c(c3)NC(=O)C3COCCN43)CC2)nc1` (stereo not shown) [Compound 100, 6-(4-((6-oxo-5,6,6a,7,9,10-hexahydro-[1,4]oxazino[4,3-a]pyrido[3,2-e]pyrazin-3-yl)methyl)piperazin-1-yl)nicotinonitrile]: the PF50 is on record as more than 10.
